# Assay results reported in the supplement of paper PMC10307832.
# Experiments:
# Assay in all cases: relative viability (nuclei count vs DMSO), 5 days (fraction); higher = more cells survive
# IMD-0354 + Tozasertib = compound: O=C(Nc1cc(C(F)(F)F)cc(C(F)(F)F)c1)c1cc(Cl)ccc1O [IMD-0354] + Cc1cc(Nc2cc(N3CCN(C)CC3)nc(Sc3ccc(NC(=O)C4CC4)cc3)n2)n[nH]1 [Tozasertib] (partner 0.1 µM)
# Outline: (§1)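 Medians of duplicate plates are given as relative viability. That measure is the nuclei count in treated wells divided by the count in vehicle wells. Counts were taken on 4× images of lung cancer cell lines in 1536-well plates, 5 days after pin-tool dosing the day after seeding with one drug alone or a fixed anchor-drug dose plus five library-drug doses (not always all listed) in √10 steps.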
# IMD-0354 + Luminespib = compound: O=C(Nc1cc(C(F)(F)F)cc(C(F)(F)F)c1)c1cc(Cl)ccc1O [IMD-0354] + CCNC(=O)c1noc(-c2cc(C(C)C)c(O)cc2O)c1-c1ccc(CN2CCOCC2)cc1 [Luminespib] (partner 0.01 µM)
# Outline: as §1
# IMD-0354 + Olaparib = compound: O=C(Nc1cc(C(F)(F)F)cc(C(F)(F)F)c1)c1cc(Cl)ccc1O [IMD-0354] + O=C(c1cc(Cc2n[nH]c(=O)c3ccccc23)ccc1F)N1CCN(C(=O)C2CC2)CC1 [Olaparib] (partner 8 µM)
# Outline: as §1
# CX-5461 + Vorinostat = compound: Cc1cnc(CNC(=O)c2c(=O)c3ccc(N4CCCN(C)CC4)nc3n3c2sc2ccccc23)cn1 [CX-5461] + O=C(CCCCCCC(=O)Nc1ccccc1)NO [Vorinostat] (partner 1 µM)
# Outline: as §1
Cell Line,relative viability (IMD-0354 + Tozasertib; first compound 0.04 µM),relative viability (IMD-0354 + Tozasertib; first compound 0.1265 µM),relative viability (IMD-0354 + Tozasertib; first compound 0.4 µM),relative viability (IMD-0354 + Tozasertib; first compound 1.265 µM),relative viability (IMD-0354 + Tozasertib; first compound 4 µM),relative viability (IMD-0354 + Luminespib; first compound 0.04 µM),relative viability (IMD-0354 + Luminespib; first compound 0.1265 µM),relative viability (IMD-0354 + Luminespib; first compound 0.4 µM),relative viability (IMD-0354 + Luminespib; first compound 1.265 µM),relative viability (IMD-0354 + Luminespib; first compound 4 µM),relative viability (IMD-0354 + Olaparib; first compound 0.04 µM),relative viability (IMD-0354 + Olaparib; first compound 0.1265 µM),relative viability (IMD-0354 + Olaparib; first compound 0.4 µM),relative viability (IMD-0354 + Olaparib; first compound 1.265 µM),relative viability (IMD-0354 + Olaparib; first compound 4 µM),relative viability (CX-5461 + Vorinostat; first compound 0.01 µM),relative viability (CX-5461 + Vorinostat; first compound 0.03162 µM),relative viability (CX-5461 + Vorinostat; first compound 0.1 µM),relative viability (CX-5461 + Vorinostat; first compound 0.3162 µM),relative viability (CX-5461 + Vorinostat; first compound 1 µM)
NCI-H1975,0.814,0.864,0.399,0.111,0.148,0.24,0.197,0.183,0.153,0.162,1.07,0.912,0.437,0.191,0.18,0.686,0.719,0.684,0.696,0.459
NCI-H1651,0.662,0.658,0.317,0.363,0.0982,0.984,0.557,0.289,0.247,0.153,0.189,0.196,0.177,0.177,0.124,0.55,0.552,0.546,0.566,0.194
NCI-H441,0.79,0.667,0.397,0.295,0.24,0.279,0.409,0.234,0.214,0.2,0.537,0.541,0.604,0.186,0.194,0.538,0.984,0.707,0.618,0.556
LCLC-103H,0.597,0.509,0.425,0.449,0.222,1.1,0.894,0.744,0.432,0.222,0.79,0.739,0.566,0.45,0.379,0.784,0.855,0.827,0.517,0.741
LCLC-97TM1,0.2,0.223,0.171,0.18,0.116,0.735,0.705,0.529,0.251,0.148,0.407,0.387,0.213,0.154,0.141,0.917,0.965,0.769,0.102,0.661
NCI-H727,0.602,0.673,0.489,0.539,0.453,0.344,0.295,0.371,0.191,0.302,0.574,0.633,0.617,0.524,0.318,1.4,1.2,1.28,1.03,1.05
NCI-H1355,0.598,0.528,0.594,0.271,0.258,0.769,0.585,0.567,0.333,0.32,0.663,0.769,0.452,0.198,0.175,0.711,0.736,0.625,0.432,0.43
HOP-62,0.46,0.374,0.263,0.228,0.108,0.998,0.864,0.53,0.509,0.166,0.262,0.413,0.347,0.15,0.0835,0.542,0.856,0.655,0.271,0.405
NCI-H2085,0.941,0.797,0.681,0.459,0.405,0.498,0.41,0.409,0.274,0.264,0.785,0.795,0.713,0.412,0.377,0.854,0.82,0.708,0.865,0.719
